# Data as given in ChEMBL document CHEMBL1148604 (J Med Chem, 2006).
# The source made the active and inactive calls. The calls are words filed in the database; no cut-off is given here.
# Columns and labels:
# [1] = system: Escherichia coli; assay: Inhibitory activity against Escherichia coli ANSI; type: functional
# [2] = molecular target: T1, 3-oxoacyl-[acyl-carrier-protein] synthase 3 (Escherichia coli) (UniProt C3TDZ2); assay: Inhibitory activity against FabH from Escherichia coli ANSI at 100 uM
# T1 sequence (whole entry): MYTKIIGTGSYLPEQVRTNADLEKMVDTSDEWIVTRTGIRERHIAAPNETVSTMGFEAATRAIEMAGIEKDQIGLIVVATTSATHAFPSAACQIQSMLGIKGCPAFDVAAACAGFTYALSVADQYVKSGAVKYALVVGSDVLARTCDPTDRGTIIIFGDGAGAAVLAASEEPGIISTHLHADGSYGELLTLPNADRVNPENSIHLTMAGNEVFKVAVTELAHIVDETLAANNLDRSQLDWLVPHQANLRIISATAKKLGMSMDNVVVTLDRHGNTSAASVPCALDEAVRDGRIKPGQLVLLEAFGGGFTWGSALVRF
# [3] = molecular target: T2, 3-oxoacyl-[acyl-carrier-protein] synthase 1 (Mycobacterium tuberculosis) (UniProt P9WQD9); assay: Inhibitory activity against KasA from Mycobacterium tuberculosis H37Rv at 100 uM
# T2 sequence (whole entry): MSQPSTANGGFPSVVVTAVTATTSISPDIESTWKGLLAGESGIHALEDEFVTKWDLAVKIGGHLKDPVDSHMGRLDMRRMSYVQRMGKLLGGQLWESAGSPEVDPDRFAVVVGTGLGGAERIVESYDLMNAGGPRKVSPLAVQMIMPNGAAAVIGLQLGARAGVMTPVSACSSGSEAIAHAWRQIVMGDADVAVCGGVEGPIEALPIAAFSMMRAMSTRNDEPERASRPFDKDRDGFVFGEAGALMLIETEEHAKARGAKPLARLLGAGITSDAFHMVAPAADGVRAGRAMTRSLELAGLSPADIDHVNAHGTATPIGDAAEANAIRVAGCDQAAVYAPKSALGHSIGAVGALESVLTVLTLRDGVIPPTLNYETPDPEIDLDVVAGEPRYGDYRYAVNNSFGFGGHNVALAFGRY
# [4] = molecular target: T3, Mycobacterial beta-ketoacyl-[acyl-carrier-protein] synthase III (Mycobacterium tuberculosis, UniProt P9WNG3); assay: Inhibitory activity against FabH from Mycobacterium tuberculosis H37Rv
# T3 sequence (P9WNG3 whole entry): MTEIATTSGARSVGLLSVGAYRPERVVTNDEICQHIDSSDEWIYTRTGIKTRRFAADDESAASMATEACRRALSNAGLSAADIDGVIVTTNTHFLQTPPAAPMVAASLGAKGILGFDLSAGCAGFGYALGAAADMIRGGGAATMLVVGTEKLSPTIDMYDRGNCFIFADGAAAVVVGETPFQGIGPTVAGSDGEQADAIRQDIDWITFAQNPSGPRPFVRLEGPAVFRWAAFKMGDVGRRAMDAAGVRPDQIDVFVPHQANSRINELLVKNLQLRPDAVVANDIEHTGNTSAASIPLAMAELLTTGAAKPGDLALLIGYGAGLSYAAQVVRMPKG
# [5] = molecular target: T4, 3-oxoacyl-[acyl-carrier-protein] synthase 2 (Mycobacterium tuberculosis) (UniProt P9WQD7); assay: Inhibitory activity against KasB from Mycobacterium tuberculosis H37Rv at 100 uM
# T4 sequence (whole entry): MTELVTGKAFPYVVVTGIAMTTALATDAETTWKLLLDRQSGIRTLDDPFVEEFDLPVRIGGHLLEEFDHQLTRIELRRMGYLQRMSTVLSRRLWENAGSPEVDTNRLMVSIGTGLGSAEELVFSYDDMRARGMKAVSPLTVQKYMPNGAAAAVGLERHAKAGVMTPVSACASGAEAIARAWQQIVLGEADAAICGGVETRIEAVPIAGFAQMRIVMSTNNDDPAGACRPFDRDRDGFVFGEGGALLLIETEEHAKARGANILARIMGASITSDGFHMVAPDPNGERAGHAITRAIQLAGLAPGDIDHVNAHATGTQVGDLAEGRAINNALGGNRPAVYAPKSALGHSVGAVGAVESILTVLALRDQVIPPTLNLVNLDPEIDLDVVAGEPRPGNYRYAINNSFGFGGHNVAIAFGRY
# [6] = molecular target: T5, Mycobacterial beta-ketoacyl-[acyl-carrier-protein] synthase III (Mycobacterium tuberculosis) (UniProt P9WNG3); assay: Inhibitory activity against FabH from Mycobacterium tuberculosis H37Rv at 100 uM
# T5 sequence (whole entry): T3 sequence (P9WNG3 whole entry)
# [7] = system: Mycobacterium tuberculosis; assay: Inhibitory activity against Mycobacterium tuberculosis H37Rv; type: functional
# [8] = molecular target: T6, 3-oxoacyl-[acyl-carrier-protein] synthase 1 (Escherichia coli K-12) (UniProt P0A953); assay: Inhibitory activity against FabB from Escherichia coli ANSI at 100 uM
# T6 sequence (whole entry): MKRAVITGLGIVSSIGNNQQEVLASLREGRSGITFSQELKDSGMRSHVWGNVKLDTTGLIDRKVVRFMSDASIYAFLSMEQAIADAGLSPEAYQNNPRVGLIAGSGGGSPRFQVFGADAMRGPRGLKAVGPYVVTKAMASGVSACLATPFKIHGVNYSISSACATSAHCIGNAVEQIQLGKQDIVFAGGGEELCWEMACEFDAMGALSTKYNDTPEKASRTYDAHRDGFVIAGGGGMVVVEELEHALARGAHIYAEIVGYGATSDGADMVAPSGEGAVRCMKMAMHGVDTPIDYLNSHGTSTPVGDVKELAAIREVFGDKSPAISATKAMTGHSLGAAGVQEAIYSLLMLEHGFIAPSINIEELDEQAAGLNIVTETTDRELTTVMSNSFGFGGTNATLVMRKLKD
# [9] = molecular target: T7, 3-oxoacyl-[acyl-carrier-protein] synthase 1 (Escherichia coli K-12, UniProt P0A953); assay: Inhibitory activity against FabB from Escherichia coli ANSI
# T7 sequence (P0A953 whole entry): T6 sequence (whole entry)
# [10] = molecular target: T8, 3-oxoacyl-[acyl-carrier-protein] synthase 3 (Escherichia coli, UniProt C3TDZ2); assay: Inhibitory activity against FabH from Escherichia coli ANSI
# T8 sequence (C3TDZ2 whole entry): T1 sequence (whole entry)
# [11] = molecular target: T9, 3-oxoacyl-[acyl-carrier-protein] synthase 2 (Mycobacterium tuberculosis, UniProt P9WQD7); assay: Inhibitory activity against KasB from Mycobacterium tuberculosis H37Rv
# T9 sequence (P9WQD7 whole entry): T4 sequence (whole entry)
# [12] = molecular target: wild-type apo-KasA (Mycobacterium tuberculosis, UniProt P9WQD9); assay: Inhibitory activity against KasA from Mycobacterium tuberculosis H37Rv
Structure (SMILES),MIC [1],inhibition [2],inhibition [3],IC50 [4],inhibition [5],inhibition [6],MIC [7],inhibition [8],IC50 [9],IC50 [10],IC50 [11],IC50 [12]
CC1=C(O)C(C)(Cc2ccc(C(F)(F)F)cc2)SC1=O (stereo not given),> 1000 µM,inactive,inactive,> 100 µM,inactive,< 30%,1000 µM,inactive,–,–,–,–
CCCCCCCCCCCCCC1(C)SC(O)=C(C)C1=O (stereo not given),> 200 µM,–,inactive,80 µM,inactive,–,500 µM,< 30%,> 100 µM,100 µM,–,–
CC1=C(O)SC(C)(C(C)C)C1=O (stereo not given),> 1000 µM,inactive,inactive,–,inactive,inactive,> 1000 µM,inactive,–,–,–,–
C=CCC1(C)SC(=O)C(C)=C1O (stereo not given),> 1000 µM,inactive,inactive,–,inactive,inactive,> 1000 µM,inactive,–,–,–,–
CC(C)=CCC/C(C)=C/CC1(C)SC(O)=C(C)C1=O (stereo not given),> 1000 µM,–,inactive,–,inactive,inactive,> 1000 µM,inactive,–,100 µM,–,–
CCC(C)C1(C)SC(O)=C(C)C1=O (stereo not given),> 1000 µM,inactive,inactive,> 100 µM,inactive,< 30%,> 1000 µM,inactive,–,–,–,–
CC1=C(O)C(C)(C/C=C/c2ccccc2)SC1=O (stereo not given),> 1000 µM,inactive,inactive,–,inactive,inactive,> 1000 µM,inactive,–,–,–,–
CC1=C(O)C(C)(Cc2ccccc2)SC1=O (stereo not given),> 1000 µM,inactive,inactive,–,inactive,inactive,> 1000 µM,inactive,–,–,–,–
CCCCCCC1(C)SC(O)=C(C)C1=O (stereo not given),> 1000 µM,inactive,inactive,–,inactive,inactive,1000 µM,inactive,–,–,–,–
CC1=C(O)SC(C)(CC(C)C)C1=O (stereo not given),> 1000 µM,inactive,inactive,–,inactive,inactive,> 1000 µM,inactive,–,–,–,–
CC1=C(O)C(C)(Cc2ccc(Cl)cc2Cl)SC1=O (stereo not given),150 µM,inactive,inactive,> 100 µM,inactive,< 30%,500 µM,inactive,–,–,–,–
C/C=C/CC1(C)SC(O)=C(C)C1=O (stereo not given),> 1000 µM,inactive,inactive,–,inactive,inactive,> 1000 µM,inactive,–,–,–,–
CCCCCCCCCCCCCCC1(C)SC(O)=C(C)C1=O (stereo not given),200 µM,–,inactive,80 µM,inactive,–,1000 µM,< 30%,> 100 µM,100 µM,–,–
C=CC(C)CC1(C)SC(O)=C(C)C1=O (stereo not given),> 1000 µM,inactive,inactive,–,inactive,inactive,> 1000 µM,inactive,–,–,–,–
CCCCCCCCCCC1(C)SC(O)=C(C)C1=O (stereo not given),100 µM,–,inactive,> 100 µM,inactive,< 30%,500 µM,inactive,–,100 µM,–,–
CC1=C(O)C(C)(C2CCCC2)SC1=O (stereo not given),> 1000 µM,inactive,inactive,–,inactive,inactive,> 1000 µM,inactive,–,–,–,–
CCC(CC)CC1(C)SC(O)=C(C)C1=O (stereo not given),> 1000 µM,inactive,inactive,–,inactive,inactive,1000 µM,inactive,–,–,–,–
C=C(C)CC1(C)SC(O)=C(C)C1=O (stereo not given),> 1000 µM,inactive,inactive,–,inactive,inactive,> 1000 µM,inactive,–,–,–,–
CCCCCCCCCCCCC1(C)SC(O)=C(C)C1=O (stereo not given),25 µM,–,inactive,50 µM,inactive,–,1000 µM,inactive,–,100 µM,–,–
CCCCCC1(C)SC(O)=C(C)C1=O (stereo not given),> 1000 µM,inactive,inactive,–,inactive,inactive,500 µM,inactive,–,–,–,–
CC1=C(O)C(C)(C2CCCCC2)SC1=O (stereo not given),> 1000 µM,inactive,inactive,> 100 µM,inactive,< 30%,1000 µM,inactive,–,–,–,–
CC1=C(O)SC(C)C1=O (stereo not given) [THIOLACTONE],> 1000 µM,inactive,inactive,–,inactive,inactive,> 1000 µM,inactive,–,–,–,–
CC1=C(O)C(C)(Cc2ccc3ccccc3c2)SC1=O (stereo not given),> 1000 µM,–,–,> 100 µM,–,–,500 µM,–,> 1000 µM,> 1000 µM,> 1000 µM,> 1000 µM
CC/C=C/CC1(C)SC(O)=C(C)C1=O (stereo not given),> 1000 µM,–,–,> 1000 µM,–,–,> 1000 µM,–,> 1000 µM,> 1000 µM,> 1000 µM,> 1000 µM
